# Data published in article PMC10850145, “Hormonal steroids induce multidrug resistance and stress response genes in Neisseria gonorrhoeae by binding to MtrR” (Nature Communications, 2024).
# Values joined by “and” are separate entries in the source; they are usually repeats but may differ in a detail not shown here. Equal values may be shown once. Read-outs that look alike come from different tables or passages of the source.
# Test system: rpoH-lacZ expression
# Format: cell-based, Neisseria gonorrhoeae
# Conditions: for Miller units, Mean: mean of 4 wells; for Miller units, single well: individual replicate; for Miller units / β-galactosidase activity (Miller units): rpoH-lacZ, single replicate
# [1] = 25 µM hormone, plate columns 1-6 (WT)
# [2] = 25 µM hormone, plate columns 7-12 (second strain, not WT)
# [3] = 50 µM hormone, plate columns 1-6 (WT)
# [4] = 50 µM hormone, plate columns 7-12 (second strain, not WT)
# [5] = ΔmtrR + mtrR D171A in trans, 6.25 µM hormone
# [6] = ΔmtrR + mtrR D171A in trans, 12.5 µM hormone
# [7] = ΔmtrR + mtrR D171A in trans, 25 µM hormone
# [8] = ΔmtrR + mtrR D171A in trans, 50 µM hormone
smiles,measurement,setting,value
"CC(=O)[C@H]1CC[C@H]2[C@@H]3CCC4=CC(=O)CC[C@]4(C)[C@H]3CC[C@]12C [Progesterone, progesterone]","Miller units, Mean","12.5 µM hormone, plate columns 7-12 (second strain, not WT)",78 Miller units
same,"Miller units, single well",[1],60 Miller units and 61 Miller units and 39 Miller units and 59 Miller units
same,"Miller units, Mean",[1],55 Miller units
same,"Miller units, single well",[2],95 Miller units and 81 Miller units and 89 Miller units and 80 Miller units
same,"Miller units, Mean",[2],86 Miller units
same,"Miller units, single well",[3],66 Miller units and 65 Miller units and 44 Miller units
same,"Miller units, Mean",[3],60 Miller units
same,"Miller units, single well",[4],64 Miller units and 60 Miller units and 72 Miller units and 71 Miller units
same,"Miller units, Mean",[4],67 Miller units
same,induction of rpoH expression,"complemented (MtrR+) strains, increasing hormone",could be induced
same,induction of rpoH expression,loss of MtrR or MtrR-D171A strain,abrogated
same,Miller units,[5],94 Miller units
same,β-galactosidase activity (Miller units),[5],87 Miller units and 84 Miller units and 85 Miller units
same,Miller units,[6],71 Miller units
same,β-galactosidase activity (Miller units),[6],87 Miller units and 78 Miller units and 77 Miller units
same,Miller units,[7],89 Miller units
same,β-galactosidase activity (Miller units),[7],95 Miller units and 81 Miller units and 80 Miller units
same,Miller units,[8],72 Miller units
same,β-galactosidase activity (Miller units),[8],64 Miller units and 60 Miller units and 71 Miller units
same,β-galactosidase activity (Miller units),"ΔmtrR + mtrR WT in trans, 6.25 µM hormone",42 Miller units and 34 Miller units and 33 Miller units
same,β-galactosidase activity (Miller units),"ΔmtrR + mtrR WT in trans, 12.5 µM hormone",35 Miller units and 36 Miller units and 31 Miller units and 38 Miller units
same,β-galactosidase activity (Miller units),"ΔmtrR + mtrR WT in trans, 25 µM hormone",60 Miller units and 61 Miller units and 39 Miller units and 59 Miller units
same,β-galactosidase activity (Miller units),"ΔmtrR + mtrR WT in trans, 50 µM hormone",66 Miller units and 65 Miller units and 44 Miller units
same,β-galactosidase activity (Miller units),"ΔmtrR strain, 6.25 µM hormone",315 Miller units and 172 Miller units and 146 Miller units
same,β-galactosidase activity (Miller units),"ΔmtrR strain, 12.5 µM hormone",228 Miller units and 142 Miller units and 163 Miller units
same,β-galactosidase activity (Miller units),"ΔmtrR strain, 25 µM hormone",253 Miller units and 160 Miller units and 118 Miller units
same,β-galactosidase activity (Miller units),"ΔmtrR strain, 50 µM hormone",186 Miller units and 118 Miller units and 96 Miller units
same,Miller units,"ΔmtrR, 6.25 µM hormone",180 Miller units
same,Miller units,"ΔmtrR, 12.5 µM hormone",168 Miller units
same,Miller units,"ΔmtrR, 25 µM hormone",170 Miller units
same,Miller units,"ΔmtrR, 50 µM hormone",138 Miller units
same,"β-galactosidase activity, rpoH-lacZ, Mean","strain WT (FA19/pLES94-rpoH), hormone 6.25 µM",66 Miller units
same,"β-galactosidase activity, rpoH-lacZ, Mean","strain WT (FA19/pLES94-rpoH), hormone 12.5 µM",79 Miller units
same,"β-galactosidase activity, rpoH-lacZ, Mean","strain WT (FA19/pLES94-rpoH), hormone 50 µM",136 Miller units
same,activation of rpoH,strain producing MtrR R176E,almost no activation
same,"β-galactosidase activity, rpoH-lacZ, Mean","strain ΔmtrR (FA19 ∆mtrR/pLES94-rpoH), hormone 6.25 µM",203 Miller units
same,"β-galactosidase activity, rpoH-lacZ, Mean","strain ΔmtrR (FA19 ∆mtrR/pLES94-rpoH), hormone 12.5 µM",175 Miller units
same,"β-galactosidase activity, rpoH-lacZ, Mean","strain ΔmtrR (FA19 ∆mtrR/pLES94-rpoH), hormone 25 µM",175 Miller units
same,"β-galactosidase activity, rpoH-lacZ, Mean","strain ΔmtrR (FA19 ∆mtrR/pLES94-rpoH), hormone 50 µM",134 Miller units
same,"β-galactosidase activity, rpoH-lacZ, Mean","strain ΔmtrR + mtrR D171A (pGCC3-mtrR D171A), hormone 6.25 µM",87 Miller units
same,"β-galactosidase activity, rpoH-lacZ, Mean","strain ΔmtrR + mtrR D171A (pGCC3-mtrR D171A), hormone 12.5 µM",78 Miller units
same,"β-galactosidase activity, rpoH-lacZ, Mean","strain ΔmtrR + mtrR D171A (pGCC3-mtrR D171A), hormone 25 µM",86 Miller units
same,"β-galactosidase activity, rpoH-lacZ, Mean","strain ΔmtrR + mtrR D171A (pGCC3-mtrR D171A), hormone 50 µM",67 Miller units
same,"β-galactosidase activity, rpoH-lacZ, Mean","strain ΔmtrR + mtrR WT (pGCC3-mtrR), hormone 6.25 µM",35 Miller units
same,"β-galactosidase activity, rpoH-lacZ, Mean","strain ΔmtrR + mtrR WT (pGCC3-mtrR), hormone 12.5 µM",35 Miller units
same,"β-galactosidase activity, rpoH-lacZ, Mean","strain ΔmtrR + mtrR WT (pGCC3-mtrR), hormone 25 µM",55 Miller units
same,"β-galactosidase activity, rpoH-lacZ, Mean","strain ΔmtrR + mtrR WT (pGCC3-mtrR), hormone 50 µM",60 Miller units
